This is an account of results in publication PMC7587356, “High-Throughput Screening for Inhibitors of the SARS-CoV-2 Protease Using a FRET-Biosensor” (Molecules, 2020).

Counter-ions that a name gives are not always drawn. Like-named read-outs stand apart in the source and are kept apart here.

In this test the target is SARS-CoV-2 3CLpro (Severe acute respiratory syndrome coronavirus 2, UniProt P0DTD1). The experiment in a line: biochemical. The class given is biochemical. Set-up: Replicate_1 / Replicate_2 / mean / mean (LOPAC_screen_w_protease): unit not given here. As to conditions: for inhibition at 5 µM: 4 h; for mean (LOPAC screen with protease) / Replicate_1 (LOPAC screen with protease) / Replicate_2 (LOPAC screen with protease): primary screen at 5 µM.

Setting [1] is: LOPAC1280 primary screen with protease, 5 µM compound, mean of the two replicates.
Where [2] appears, read: LOPAC1280 primary screen with protease, 5 µM compound, replicate 1.
[3] abbreviates: LOPAC1280 primary screen with protease, 5 µM compound, replicate 2.
The mark [4] stands for this setting: sheet LOPAC_screen_w_protease, LOPAC1280 primary screen at 5 µM, with protease, replicate 1.
The mark [5] stands for this setting: sheet LOPAC_screen_w_protease, LOPAC1280 primary screen at 5 µM, with protease, replicate 2.
Where [6] appears, read: sheet LOPAC_screen_w_protease, LOPAC1280 primary screen at 5 µM, with protease, mean of two replicates.
Where [7] appears, read: sheet LOPAC_screen_w_protease, mean of two replicates.
Where [8] appears, read: sheet LOPAC_screen_w_protease, replicate 1.
The mark [9] stands for this setting: sheet LOPAC_screen_w_protease, replicate 2.
[10] abbreviates: sheet LOPAC_screen_w_protease, primary screen with protease, mean of two replicates.
Setting [11] is: sheet LOPAC_screen_w_protease, primary screen with protease, replicate 1.
[12] abbreviates: sheet LOPAC_screen_w_protease, primary screen with protease, replicate 2.
Setting [13] is: sheet LOPAC_screen_w_protease, primary screen of LOPAC1280 at 5 µM with protease, mean of the two replicates.
Where [14] appears, read: sheet LOPAC_screen_w_protease, primary screen of LOPAC1280 at 5 µM with protease, replicate 1.
[15] abbreviates: sheet LOPAC_screen_w_protease, primary screen of LOPAC1280 at 5 µM with protease, replicate 2.
Setting [16] is: sheet LOPAC_screen_w_protease, primary screen with protease, 5 µM, mean of two replicates.
The mark [17] stands for this setting: sheet LOPAC_screen_w_protease, primary screen with protease, 5 µM, replicate 1.
The mark [18] stands for this setting: sheet LOPAC_screen_w_protease, primary screen with protease, 5 µM, replicate 2.
The mark [19] stands for this setting: sheet LOPAC_screen_w_protease, LOPAC1280 at 5 µM, mean of two replicates.
Setting [20] is: sheet LOPAC_screen_w_protease, LOPAC1280 at 5 µM, replicate 1.
The mark [21] stands for this setting: sheet LOPAC_screen_w_protease, LOPAC1280 at 5 µM, replicate 2.
Where [22] appears, read: LOPAC1280 primary screen with protease, 5 µM compound, mean of two replicates.
Where [23] appears, read: sheet LOPAC_screen_w_protease, primary screen with protease, compound at 5 µM, mean of two replicates.
[24] abbreviates: sheet LOPAC_screen_w_protease, primary screen with protease, compound at 5 µM, replicate 1.
[25] abbreviates: sheet LOPAC_screen_w_protease, primary screen with protease, compound at 5 µM, replicate 2.
Where [26] appears, read: LOPAC1280 primary screen with protease, 5 µM compound, replicate 1, read-out: Replicate_1 (LOPAC_screen_w_protease).
[27] abbreviates: LOPAC1280 primary screen with protease, 5 µM compound, replicate 2, read-out: Replicate_2 (LOPAC_screen_w_protease).

Regarding `Oc1cccc2c(O)nccc12` [1,5-Isoquinolinediol], the “mean (LOPAC_screen_w_protease)” value under setting [1] turned out to be 2.037. Moreover, the “Replicate_1 (LOPAC_screen_w_protease)” value under setting [2] was 1.193. For the same compound, the “Replicate_2 (LOPAC_screen_w_protease)” value under setting [3] stood at 2.882.
`O=C(O)/C=C\C(=O)O.O=[N+]([O-])c1ccc2nc(N3CCNCC3)ccc2c1` [Quipazine, 6-nitro-, maleate]: the mean (sheet LOPAC_screen_w_protease, LOPAC1280 primary screen at 5 µM, with protease, mean of the two replicates) amounted to 0.7082. Further, the Replicate_1 under setting [4] was found to be 1.452. Under setting [5], this compound had a Replicate_2 of -0.03606.
Take `O=c1c(O)c(-c2ccc(O)cc2O)oc2cc(O)cc(O)c12` [Morin]: the inhibition at 5 µM (read-out: Replicate_1) stood at 6.85%, the inhibition at 5 µM (read-out: Replicate_2) was 5.63% and the inhibition at 5 µM (read-out: mean) was determined as 6.24%.
`CC#CCOC(=O)c1c(C)nc2sc3c(c2c1N)CCC(O)C3` (stereo not drawn) [SB 205384]: the mean under setting [6] is recorded as -1.612. For the same compound, under setting [4], the Replicate_1 was 2.126. In addition, the Replicate_2 under setting [5] is -5.349.
For `Nc1ccc(CCN2CCN(c3cccc(C(F)(F)F)c3)CC2)cc1` [PAPP], in that order: -1.528, -1.095 and -1.96.
Consider `CC[N+](C)(CC)CC(=O)Nc1c(C)cccc1C.[Cl-]` [Lidocaine N-methyl hydrochloride], for which the “mean (LOPAC_screen_w_protease)” value under setting [1] is on record as 2.035. For the same compound, under setting [2], the “Replicate_1 (LOPAC_screen_w_protease)” value came out at 4.235. Moreover, the “Replicate_2 (LOPAC_screen_w_protease)” value under setting [3] was -0.1654.
`C=CCN1CC[C@]23c4c5ccc(O)c4O[C@@H]2/C(=N/N=C2\CC[C@@]4(O)C6Cc7ccc(O)c8c7[C@@]4(CCN6CC=C)[C@@H]2O8)CC[C@@]3(O)C1C5.Cl.Cl` [Naloxonazine dihydrochloride]: the “mean (LOPAC screen with protease)” value under setting [7] was found to be 7.252. The “Replicate_1 (LOPAC screen with protease)” value under setting [8] amounted to 6.395. The “Replicate_2 (LOPAC screen with protease)” value under setting [9] is given as 8.109.
The compound `CC(=O)O.NC(=NCCC[C@H](N)C(=O)O)NO` [NG-Hydroxy-L-arginine acetate] had a mean under setting [10] of 2.232. This compound also had a Replicate_1 under setting [11] of 2.489. This compound returned a Replicate_2 under setting [12] of 1.975.
`Cn1cnc2c(NC3CCCC3)ncnc21` [N6-Cyclopentyl-9-methyladenine] had a mean under setting [13] of 3.328. The same compound had a Replicate_1 under setting [14] of 3.176. The same compound registered a Replicate_2 under setting [15] of 3.4795.
As for `COc1ccc2c(c1)c(CC(=O)O)c(C)n2Cc1ccc(Cl)cc1`, the mean under setting [16] stood at 0.3525. This compound displayed a Replicate_1 under setting [17] of -0.9083. The compound further registered a Replicate_2 under setting [18] of 1.613.
In the case of `Br.COc1ccc(-c2ccc(=N)n(CCCC(=O)O)n2)cc1` [SR-95531], the “Replicate_1 (LOPAC_screen_w_protease)” value turned out to be 2.0939, the “Replicate_2 (LOPAC_screen_w_protease)” value is 0.7216 and the “mean (LOPAC_screen_w_protease)” value is on record as 1.408.
Consider (+)-Cyclazocine, for which the mean under setting [19] is listed as 1.031. The same compound returned a Replicate_1 under setting [20] of 2.203. Under setting [21], this compound displayed a Replicate_2 of -0.1419.
On to `CC1=C(/C=C/C(C)=C/C=C/C(C)=C/C(=O)Nc2ccc(O)cc2)C(C)(C)CCC1` [Retinoic acid p-hydroxyanilide], for which the mean under setting [10] came out at 2.295. Further, under setting [11], the Replicate_1 turned out to be 3.365. The same compound yielded a Replicate_2 under setting [12] of 1.2239.
`Cc1ccc(/C(=C\CN2CCCC2)c2ccccn2)cc1.Cl` [Triprolidine hydrochloride] had a mean under setting [16] of 0.01953. Under setting [17], this compound came in with a Replicate_1 of 0.1702. Under setting [18], this compound showed a Replicate_2 of -0.1311.
Compound `CC(C)(C)NCC(O)c1cc(O)cc(O)c1.CC(C)(C)NCC(O)c1cc(O)cc(O)c1.O=S(=O)(O)O` (stereo not drawn) [Terbutaline hemisulfate] registered a mean under setting [19] of 1.161. Moreover, the Replicate_1 under setting [20] is reported as -0.3816. The compound further returned a Replicate_2 under setting [21] of 2.703.
On to `COc1ccc(CCN(C)CCCC(C#N)(c2cc(OC)c(OC)c(OC)c2)C(C)C)cc1OC.Cl` (racemic) [(±)-Methoxyverapamil hydrochloride], for which the “mean (LOPAC_screen_w_protease)” value under setting [1] is given as 2.071. For the same compound, the “Replicate_1 (LOPAC_screen_w_protease)” value under setting [2] worked out at 2.317. Moreover, the “Replicate_2 (LOPAC_screen_w_protease)” value under setting [3] amounted to 1.826.
As to `NCC(=O)NCCC(c1ccccc1)c1ccccc1` [N-(3,3-Diphenylpropyl)glycinamide], the “mean (LOPAC_screen_w_protease)” value under setting [22] was 1.396. For the same compound, the “Replicate_1 (LOPAC_screen_w_protease)” value under setting [2] came out at 1.194. For the same compound, the “Replicate_2 (LOPAC_screen_w_protease)” value under setting [3] turned out to be 1.598.
As for `CCC(NC(C)C)C(O)c1ccc(O)c(O)c1.CS(=O)(=O)O` (stereo not drawn) [Isotharine mesylate], the “mean (LOPAC screen with protease)” value under setting [7] is 8.447. Further, the “Replicate_1 (LOPAC screen with protease)” value under setting [8] is 8.4794. Moreover, the “Replicate_2 (LOPAC screen with protease)” value under setting [9] amounted to 8.416.
In the same order, the values of `CC(Cc1ccc(O)c(O)c1)C(C)Cc1ccc(O)c(O)c1` (stereo not drawn) are 97.9088, 97.7665 and 98.0511.
Under setting [23], `N#CC(=Cc1ccc(O)c(O)c1)C(=O)NCCc1ccccc1` [Tyrphostin AG 698] returned a mean of 2.9723. The same compound gave a Replicate_1 under setting [24] of 3.137. Moreover, the Replicate_2 under setting [25] is recorded as 2.808.
With `CN(C)CCC(c1ccccc1)c1ccccn1` (stereo not drawn) [Pheniramine maleate], the inhibition at 5 µM runs as follows: (sheet LOPAC_screen_w_protease, primary screen with protease, 5 µM, mean of two replicates, read-out: mean) -0.749%; (sheet LOPAC_screen_w_protease, primary screen with protease, 5 µM, replicate 1, read-out: Replicate_1) 0.594%; (sheet LOPAC_screen_w_protease, primary screen with protease, 5 µM, replicate 2, read-out: Replicate_2) -2.09%.
In turn, `Cl.O=c1cc(N2CCOCC2)oc2c(-c3ccccc3)cccc12` [LY-294,002 hydrochloride] displayed a mean (sheet LOPAC_screen_w_protease, LOPAC1280 primary screen with protease, 5 µM compound, mean of the two replicates) of 5.665. Further, under “sheet LOPAC_screen_w_protease, LOPAC1280 primary screen with protease, 5 µM compound, replicate 1”, the Replicate_1 came out at 6.484. Where the note is “sheet LOPAC_screen_w_protease, LOPAC1280 primary screen with protease, 5 µM compound, replicate 2”, the Replicate_2 was determined as 4.845.
Turning to `CC[C@@H]1Cc2cc(O)ccc2C2=C1c1ccc(O)cc1C[C@H]2CC`, the mean under setting [13] is 3.66. In addition, the Replicate_1 under setting [14] is reported as 4.43. This compound also yielded a Replicate_2 under setting [15] of 2.89.
Take `CC(C)C1C2CCC(C2)C1N.Cl` (stereo not drawn) [AGN 192403 hydrochloride]: the mean under setting [23] is reported as 2.735. The same compound had a Replicate_1 under setting [24] of 2.811. Further, the Replicate_2 under setting [25] is reported as 2.66.
Regarding `CNC(=O)OCC[N+](C)(C)C` [Methylcarbamylcholine chloride], the inhibition at 5 µM is, setting by setting: (sheet LOPAC_screen_w_protease, primary screen with protease, compound at 5 µM, mean of two replicates, read-out: mean) 3%; (sheet LOPAC_screen_w_protease, primary screen with protease, compound at 5 µM, replicate 1, read-out: Replicate_1) 4.73%; (sheet LOPAC_screen_w_protease, primary screen with protease, compound at 5 µM, replicate 2, read-out: Replicate_2) 1.26%.
Turning to `OCc1ccc(-c2nn(Cc3ccccc3)c3ccccc23)o1` [YC-1], the “mean (LOPAC_screen_w_protease)” value under setting [22] is on record as 1.333. Under setting [2], the “Replicate_1 (LOPAC_screen_w_protease)” value amounted to 0.3284. Besides, the “Replicate_2 (LOPAC_screen_w_protease)” value under setting [3] worked out at 2.338.
With `N=C(N)NC(CCC(=O)O)C(=O)O` (stereo not drawn) [alpha-Guanidinoglutaric acid], the “mean (LOPAC_screen_w_protease)” value under setting [1] is recorded as 1.992. Moreover, the “Replicate_1 (LOPAC_screen_w_protease)” value under setting [2] is recorded as 2.352. Besides, the “Replicate_2 (LOPAC_screen_w_protease)” value under setting [3] came to 1.632.
Turning to `Oc1ccc(O)cc1` [Hydroquinone], the inhibition at 5 µM (read-out: Replicate_1) turned out to be 3.41%, the inhibition at 5 µM (read-out: Replicate_2) was -0.951% and the inhibition at 5 µM (read-out: mean) is 1.23%.
For `Cl.NCCC[C@](N)(C(=O)O)C(F)F` (racemic), the mean under setting [23] was 3.129. The compound also yielded a Replicate_1 under setting [24] of 3.2986. In addition, the Replicate_2 under setting [25] was 2.959.
Regarding `CN1[C@@H]2CC[C@H]1C[C@@H](OC(=O)c1cc(Cl)cc(Cl)c1)C2` [3-Tropanyl-3,5-dichlorobenzoate], the inhibition at 5 µM under setting [26] stood at 2.08% and the inhibition at 5 µM under setting [27] was 0.785%. Moreover, under setting [22], the “mean (LOPAC_screen_w_protease)” value is on record as 1.4299.
For the compound `CNCCC=C1c2ccccc2CCc2ccccc21` [Nortriptyline hydrochloride], the inhibition at 5 µM reads like this: (read-out: Replicate_1) 2.88%; (read-out: Replicate_2) 1.57%; (read-out: mean) 2.22%.
`COc1cc2c(cc1OC)-c1c/c(=N\c3c(C)cc(C)cc3C)n(C)c(=O)n1CC2` [Trequinsin hydrochloride]: the inhibition at 5 µM by setting is: under setting [26], 1.97%; under setting [27], 2%. In addition, the “mean (LOPAC_screen_w_protease)” value under setting [1] is listed as 1.986.
